In patent US10189796B2, “[4-(1,3,3-trimethyl-2-oxo-3,4-dihydro-1H-quinoxalin-7-yl)phenoxy]ethyloxy compound or salt thereof” (SANTEN PHARMACEUTICAL CO., LTD., priority 2015, dated 2019):
Counter-ions that a name gives are not always drawn.

Columns and labels:
[1] = test system: IL-6 production in human corneal epithelium cell line (HCE-T); assay: IL-6 production inhibitory action evaluation test (LPS stimulation, HTRF); assay type: cell-based; settings: 4 hours; for Emax: 100 μM test compound solution 10 μL/well, DEX treated group = 100, read-out: IL-6 production inhibitory ratio (% DEX); for IC50: IL-6 production inhibition
Description: To evaluate the action of the present compounds as a GR agonist, IL-6 production inhibitory action in human corneal epithelial cell line after LPS stimulation was examined The IL-6 production was measured by using the HTRF method (Cat No. 62IL6PEB manufactured by Cisbio Bioassays, Inc.) according to the attached protocol. The specific method is described below.
LPS solution: After dissolving LPS in PBS(−), the resulting solution was diluted with a culture solution, whereby an LPS solution with a 1 μg/mL concentration was prepared.
After dissolving the test compound in dimethylsulfoxide, the solution was diluted with a 10% FBS-DMEM/Ham's F12 medium, whereby a 100 μM of the test compound solution was prepared. […] In addition, DEX was similarly dissolved, whereby a 100 μM concentration of the DEX solution was prepared, and an IL-6 production inhibitory ratio of DEX was measured, and used for calculation of Efficacy (% DEX).
Used cells: human corneal epithelium cell line (HCE-T) (RIKEN, Institute of Physical and Chemical Research)
The cells continued to subculture according to this method were used for the test. (Test Method and Measurement Method) • 1) The subcultured HCE-T was recovered and the cells were seeded at 2.0×10^4 cells/0.1 mL/well in a 96-well flat bottom culture plate. • 2) After culturing overnight, medium the medium was removed and each 80 μL/well of 10%
FBS-DMEM/Ham's F12 medium was added. • 3) Test compound solution was added with each 10 μL/well. • 4) LPS solution was added with each 10 μL/well. • 5) The sample to which 1% dimethylsulfoxide-containing 10% FBS-DMEM/Ham's F12 medium was added with each 10 μL/well in place of each test compound solution, and 10% FBS-DMEM/Ham's F12 medium was added in place of the LPS solution was made a negative control. • 6) The sample in which 1% dimethylsulfoxide-containing 10% FBS-DMEM/Ham's F12 medium was added with each 10 μL/well in place of each test compound solution was made a positive control. • 7) After completion of 4 hours cultivation, the supernatant was recovered and the amount of IL-6 released in the supernatant was measured by using an HTRF human IL-6 Kit. • 8) The IL-6 production inhibitory ratio was calculated according to the following calculation formula. (Calculation of IL-6 Production Inhibitory Ratio)
The IL-6 production inhibitory ratio (%) was calculated by the following formula. IL-6 production inhibitory ratio (%)=100×{1−(IL-6 produced amount of each test compound solution−average value of IL-6 produced amount of negative control group)/(average value of IL-6 produced amount of positive control group−average value of IL-6 produced amount of negative control group)}(%)
Further, the IL-6 production inhibitory ratio (Efficacy (% DEX)) when the DEX treated group was made 100 was calculated. Efficacy (% DEX)=100×{(average value of IL-6 production inhibitory ratio of each test compound solution)/(average value of IL-6 production inhibitory ratio of DEX treated group)}(%)
In addition, IC50 was calculated according to a conventional method. IDBS XLfit4 was used for the calculation.

Recombinant human GR = Recombinant human GR (Homo sapiens (Human), UniProt P04150); assay: GR competitive binding assay by fluorescence polarization; settings: 20 μM test compound solution, 10 μL/well; 2 hours; DEX positive control; read-out: GR binding rate (%)
Description: In order to evaluate a binding activity of the present compound to GR, a GR receptor competitor assay was carried out by a fluorescence polarization method. In the assay, a GR competitive binding assay kit (manufactured by Invitrogen, cat No. P2816) was used for the assay, and a procedure was carried out according to the protocol attached to the kit. Hereinafter, the specific method will be described.
GR screening buffer: A buffer containing 10 mM of potassium phosphate (pH 7.4), 20 mM of sodium molybdate (Na2MoO4), 0.1 mM of ethylene diamine tetraacetic acid (EDTA), 5 mM of dithiothreitol (DTT), 0.1 mM of stabilizing peptide and 2% of dimethylsulfoxide was prepared.
4×GS1 solution: Fluormone™ GS1, which is a fluorescent glucocorticoid ligand, was diluted with GR screening buffer, whereby a 4 nM solution was prepared.
4×GR solution: Recombinant human GR was diluted with GR screening buffer, whereby a 16 nM solution was prepared.
After a test compound was dissolved in dimethylsulfoxide, the resulting solution was diluted with GR screening buffer, whereby a 20 μM test compound solution was prepared. In addition, DEX was similarly dissolved, whereby a DEX solution with a […] concentration was prepared, and the solution was diluted with GR screening buffer, whereby a 2 mM DEX solution was prepared. DEX was used as positive control.
• 1) The test compound solution was added in an amount of 10 μL into each well of a 384-well plate. • 2) 4×GS1 solution and 4×GR solution were added in an amount of 5 μL into each well, respectively. • 3) GR screening buffer was added in an amount of 10 μL/well into each well in place of the test compound solution, which was made a negative control. • 4) A 2 mM of DEX was added in an amount of 10 μL/well into each well in place of the test compound solution, which was made a positive control. • 5) The plate was incubated in a dark place at room temperature for 2 hours, and fluorescence polarization of each well was measured. (Calculation Equation of GR Binding Ratio)
A GR binding ratio (%) was calculated from the following equation. GR binding ratio (%)=100×{1−(fluorescence polarization of test compound solution−average value of fluorescence polarization of positive control solution)/(average value of fluorescence polarization of negative control solution−average value of fluorescence polarization of positive control solution)}

Recombinant human GR, sequence (P04150 whole entry): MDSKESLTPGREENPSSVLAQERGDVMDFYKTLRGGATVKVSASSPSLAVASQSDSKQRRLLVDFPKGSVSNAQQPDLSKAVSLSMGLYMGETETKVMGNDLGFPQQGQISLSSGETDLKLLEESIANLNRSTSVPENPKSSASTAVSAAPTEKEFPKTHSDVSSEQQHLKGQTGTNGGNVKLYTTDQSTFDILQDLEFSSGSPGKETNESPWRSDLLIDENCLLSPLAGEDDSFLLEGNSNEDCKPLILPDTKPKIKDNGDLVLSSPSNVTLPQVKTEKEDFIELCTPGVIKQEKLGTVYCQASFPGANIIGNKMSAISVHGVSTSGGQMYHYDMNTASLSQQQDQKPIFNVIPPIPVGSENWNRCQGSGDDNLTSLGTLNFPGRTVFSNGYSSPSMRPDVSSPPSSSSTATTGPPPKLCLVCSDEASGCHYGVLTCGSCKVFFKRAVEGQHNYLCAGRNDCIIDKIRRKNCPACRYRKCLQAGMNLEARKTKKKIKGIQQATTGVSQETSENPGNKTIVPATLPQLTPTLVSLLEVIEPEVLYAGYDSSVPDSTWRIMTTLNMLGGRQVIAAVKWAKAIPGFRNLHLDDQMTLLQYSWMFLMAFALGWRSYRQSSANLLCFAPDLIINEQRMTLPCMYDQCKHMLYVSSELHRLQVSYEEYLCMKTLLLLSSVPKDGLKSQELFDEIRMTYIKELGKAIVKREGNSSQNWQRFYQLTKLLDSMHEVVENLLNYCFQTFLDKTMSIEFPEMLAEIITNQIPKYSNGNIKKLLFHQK

| inhibition at 20 µM (stock) (Recombinant human GR) [%] | inhibition at 10 µM (Recombinant human GR) [%] | SMILES | Emax [1] [%] | IC50 [1] [nM] |
| --- | --- | --- | --- | --- |
| – | – | COc1cc(OC[C@H](C)OC(=O)CN)ccc1-c1ccc2c(c1COc1cc(F)ccc1C)N(C)C(=O)C(C)(C)N2 [Compound 11-4, (S)-7-[4-(2-aminoacetoxypropyl)oxy-2-methoxyphenyl]-8-(5-fluoro-2-methylphenoxy-methyl)-1,3,3-trimethyl-3,4-dihydro-1H-quinoxalin-2-one hydrochloride] | 94 | – |
| > 99 | – | COc1cc(OC[C@@H](O)CO)ccc1-c1ccc2c(c1COc1cc(F)ccc1C)N(C)C(=O)C(C)(C)N2 [Compound 4-2, (S)-7-[4-(2,3-dihydroxypropyl)oxy-2-methoxyphenyl]-8-(5-fluoro-2-methylphenoxy-methyl)-1,3,3-trimethyl-3,4-dihydro-1H-quinoxalin-2-one] | – | – |
| – | > 99 | COc1cc(OCC(O)CO)ccc1-c1ccc2c(c1COc1cc(F)ccc1C)N(C)C(=O)C(C)(C)N2 (centres unmarked) [Compound 4-1, 7-[4-(2,3-dihydroxypropyl)oxy-2-methoxyphenyl]-8-(5-fluoro-2-methylphenoxymethyl)-1,3,3-trimethyl-3,4-dihydro-1H-quinoxalin-2-one] | – | – |
| – | 94 | COc1cc(OCC(O)CC(=O)N2CCCC2)ccc1-c1ccc2c(c1COc1cc(F)ccc1C)N(C)C(=O)C(C)(C)N2 (centres unmarked) [Compound 10-1, 8-(5-fluoro-2-methylphenoxymethyl)-7-[4-[3-(N-pyrrolidylcarbonyl)-2-hydroxypropyl]oxy-2-methoxyphenyl]-1,3,3-trimethyl-3,4-dihydro-1H-quinoxalin-2-one] | – | – |
| – | > 99 | CCOC(=O)CC(O)COc1ccc(-c2ccc3c(c2COc2cc(F)ccc2C)N(C)C(=O)C(C)(C)N3)c(OC)c1 (centres unmarked) [Compound 7-1, 7-[4-(3-ethoxycarbonyl-2-hydroxypropyl)oxy-2-methoxyphenyl]-8-(5-fluoro-2-methylphenoxymethyl)-1,3,3-trimethyl-3,4-dihydro-1H-quinoxalin-2-one] | – | – |
| – | > 99 | COc1cc(OC[C@H](C)OC(=O)[C@@H](N)C(C)C)ccc1-c1ccc2c(c1COc1cc(F)ccc1C)N(C)C(=O)C(C)(C)N2 [Compound 11-5, 7-[4-[(2S)-[(2S)-amino-3-methylbutanoyloxy]propyl]oxy-2-methoxyphenyl]-8-(5-fluoro-2-methylphenoxymethyl)-1,3,3-trimethyl-3,4-dihydro-1H-quinoxalin-2-one hydrochloride] | 94 | – |
| – | > 99 | COc1cc(OCC(O)CC(=O)O)ccc1-c1ccc2c(c1COc1cc(F)ccc1C)N(C)C(=O)C(C)(C)N2 (centres unmarked) [Compound 9-1, 7-[4-(3-Carboxy-2-hydroxypropyl)oxy-2-methoxyphenyl]-8-(5-fluoro-2-methylphenoxymethyl)-1,3,3-trimethyl-3,4-dihydro-1H-quinoxalin-2-one] | – | – |
| – | 87 | CCOC(=O)C(O)COc1ccc(-c2ccc3c(c2COc2cc(F)ccc2C)N(C)C(=O)C(C)(C)N3)c(OC)c1 (stereo in doubt) [Compound 1-6, (R)-7-[4-(2-ethoxycarbonyl-2-hydroxyethyl)oxy-2-methoxyphenyl]-8-(5-fluoro-2-methylphenoxymethyl)-1,3,3-trimethyl-3,4-dihydro-1H-quinoxalin-2-one] | 89 | < 1 |
| – | 88 | COc1cc(OC[C@H](O)CO)ccc1-c1ccc2c(c1COc1cc(F)ccc1C)N(C)C(=O)C(C)(C)N2 [Compound 4-3, (R)-7-[4-(2,3-dihydroxypropyl)oxy-2-methoxyphenyl]-8-(5-fluoro-2-methylphenoxy-methyl)-1,3,3-trimethyl-3,4-dihydro-1H-quinoxalin-2-one] | – | – |
| – | > 99 | COc1cc(OCCO)ccc1-c1ccc2c(c1COc1cc(F)ccc1C)N(C)C(=O)C(C)(C)N2 [Compound 3-1, 8-(5-fluoro-2-methylphenoxymethyl)-7-[4-(2-hydroxyethyl)oxy-2-methoxyphenyl]-1,3,3-trimethyl-3,4-dihydro-1H-quinoxalin-2-one] | – | – |
| – | > 99 | COc1cc(OCC(O)CC(=O)N2CCCCC2)ccc1-c1ccc2c(c1COc1cc(F)ccc1C)N(C)C(=O)C(C)(C)N2 (centres unmarked) [Compound 10-3, 8-(5-fluoro-2-methylphenoxymethyl)-7-[4-[3-(N-piperidino)carbonyl-2-hydroxy-propyl]oxy-2-methoxyphenyl]-1,3,3-trimethyl-3,4-dihydro-1H-quinoxalin-2-one] | – | – |

| SMILES | inhibition at 20 µM (stock) (Recombinant human GR) [%] | inhibition at 10 µM (Recombinant human GR) [%] | Emax [1] [%] | IC50 [1] [nM] |
| --- | --- | --- | --- | --- |
| COc1cc(OCC(O)CC(=O)OC(C)(C)C)ccc1-c1ccc2c(c1COc1cc(F)ccc1C)N(C)C(=O)C(C)(C)N2 (centres unmarked) [Compound 7-2, 7-[4-(3-t-butoxycarbonyl-2-hydroxypropyl)oxy-2-methoxyphenyl]-8-(5-fluoro-2-methylphenoxymethyl)-1,3,3-trimethyl-3,4-dihydro-1H-quinoxalin-2-one] | – | > 99 | > 99 | 83 |
| COc1cc(OC[C@H](O)CC#N)ccc1-c1ccc2c(c1COc1cc(F)ccc1C)N(C)C(=O)C(C)(C)N2 [Compound 5-1, (R)-7-[4-(3-cyano-2-hydroxypropyl)oxy-2-methoxyphenyl]-8-(5-fluoro-2-methyl-phenoxymethyl)-1,3,3-trimethyl-3,4-dihydro-1H-quinoxalin-2-one] | – | 88 | 98 | 14 |
